Laboratory results: patent publication US20240368158A1, “KINASE MODULATORS, COMPOSITIONS COMPRISING THE KINASE MODULATOR, AND METHODS OF USING THE SAME” (BIOFRONT LTD, priority 2021, published 2024)

Tests used:
HPK1 = target: T1, HPK1 (Homo sapiens, UniProt Q92918); test: HPK1 enzyme inhibition assay (ADP-Glo); type: biochemical; details: MBP substrate, ATP
T1 construct: purchased Signal Chem M23-11G-10
T1 sequence (Q92918 1-346 limits assumed): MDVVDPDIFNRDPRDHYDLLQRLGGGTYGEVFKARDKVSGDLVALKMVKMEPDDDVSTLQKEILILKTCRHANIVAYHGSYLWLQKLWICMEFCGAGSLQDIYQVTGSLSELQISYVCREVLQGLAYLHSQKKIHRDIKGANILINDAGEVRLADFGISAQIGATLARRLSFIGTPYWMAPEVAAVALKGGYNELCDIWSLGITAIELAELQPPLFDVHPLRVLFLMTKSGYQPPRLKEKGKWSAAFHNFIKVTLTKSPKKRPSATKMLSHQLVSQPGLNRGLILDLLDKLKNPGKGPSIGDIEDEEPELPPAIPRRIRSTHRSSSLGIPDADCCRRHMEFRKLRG
Experimental: The compound was dissolved in 100% DMSO at the concentration of 10 mM. The HPK1 protein was purchased from Signal Chem (M23-11G-10). 2.5 μL per well of 2×HPK1 protein was added to assay plate containing the test compound, centrifuged at 1500 rpm for 1 minute, and then incubated at 25° C. for 60 minutes. MBP protein was purchased from Signal Chem (M42-51N) and ATP was purchased from Promega (V9102). The two were added 2.5 μL per well mixture of 2×MBP (0.2 ug/ul) and ATP (20 μM), centrifuged at 1500 rpm for 1 minute, then incubated at 25° C. for 60 minutes. Then added 5 μL of ADP-Glo from Promega (V9102) to the assay plate and depleted the unconsumed ATP for 60 minutes. Then centrifuged at 1500 rpm for 1 minute and incubated at 25° C. for 60 minutes. Finally, 10 μL of the kinase assay reagent from Promega (V9102) was added to the assay plate to convert ADP to ATP, centrifuged at 1500 rpm for 1 minute, incubate at 25° C. for 40 minutes. After 40 minutes incubation, the […] was determined. Based on the results, the IC50 value of the compound was calculated.

[1] = tested on: HPK1 p-SLP-76 in Jurkat cells; test: HPK1 p-SLP-76 inhibition assay in Jurkat cells (HTRF); type: cell-based; details: Homo sapiens, 4 h compound, anti-CD3 stimulation 20 min
Experimental: Before compound treatment, Jurkat cells were starved in PRMI-1640 medium supplemented with 0.5% FBS overnight. The cell density was adjusted to 1*10^7 cells/mL in assay medium (RPMI-1640 no phenol red with 0.5% FBS) and 16 uL cell suspension was transferred per well to a 384-well plate (Corning #3765). […] of test compound was prepared in assay medium and 4 uL was added per well to the 384-well plate. The plate was then incubated at 37° C., 5% CO2 for 4 h. Jurkat cells in 384-well plate were stimulated with anti-CD3 (BD Biosciences #555329, final conc. is 10 ug/mL) for 20 min at 37° C., 5% CO2 by adding 4 uL 6× antibody solution per well. Phospho-SLP76 HTRF kit was purchased from Cisbio (63ADK076PEH). 8 uL 4× Lysis Buffer was added to 384-well plate after anti-CD3 stimulation. The plate was centrifuged at 1,000 rpm for 1 min, shaken at 250 rpm for 60 min and centrifuged again at 1,000 rpm for 5 min. Afterwards the cell lysates were transferred to the assay plate (Greiner #784075) with 16 uL per well. 4 uL detection antibody mix per well prepared in Detection Buffer was added to the assay plate, followed by centrifugation at 1,000 rpm for 1 min and incubation at 25° C. overnight. The fluorescence emission at two different wavelengths (665 nm and 620 nm) was read by an HTRF compatible microplate reader and the IC50 value of the compound was calculated.

SMILES | IC50 (HPK1) | IC50 [1]
O=C1CNCCN1c1cccc(-c2cnc3[nH]cc(C4CC4)c3c2Cl)n1 [Example 15, 1-(6-(4-chloro-3-cyclopropyl-1H-pyrrolo[2,3-b]pyridin-5-yl)pyridin-2-yl)piperazin-2-one] | ≤ 10 nM | ≤ 300 nM
O=C1CNCCN1c1cccc(-c2cnc3[nH]cc(CC(F)F)c3c2Cl)n1 [Example 16, 1-(6-(4-chloro-3-(2,2-difluoroethyl)-1H-pyrrolo[2,3-b]pyridin-5-yl)pyridin-2-yl)piperazin-2-one] | 10 to 100 nM | 300 to 3000 nM
CCc1c[nH]c2ncc(-c3cc(N4CCNCC4=O)ccc3F)c(Cl)c12 [Example 17, 1-(3-(4-chloro-3-ethyl-1H-pyrrolo[2,3-b]pyridin-5-yl)-4-fluorophenyl)piperazin-2-one] | 10 to 100 nM | 300 to 3000 nM
O=C1CNCCN1c1cc(-c2cnc3[nH]cc(C4CC4)c3c2Cl)ccn1 [Example 18, 1-(4-(4-chloro-3-cyclopropyl-1H-pyrrolo[2,3-b]pyridin-5-yl)pyridin-2-yl)piperazin-2-one] | 10 to 100 nM | 3000 to 10000 nM
O=C1CNCCN1c1cncc(-c2cnc3[nH]cc(C4CC4)c3c2Cl)c1 [Example 19, 1-(5-(4-chloro-3-cyclopropyl-1H-pyrrolo[2,3-b]pyridin-5-yl)pyridin-3-yl)piperazin-2-one] | 100 to 1000 nM | > 10000 nM
CCc1c[nH]c2ncc(-c3cc(N4CCNCC4=O)ccc3CO)cc12 [Example 21, 1-(3-(3-ethyl-1H-pyrrolo[2,3-b]pyridin-5-yl)-4-(hydroxymethyl)phenyl)piperazin-2-one] | > 1000 nM | > 10000 nM
CCc1c[nH]c2ncc(-c3cccc(N4CCN(C(=O)CN5CCOCC5)CC4=O)c3)c(Cl)c12 [Example 26, 1-(3-(4-chloro-3-ethyl-1H-pyrrolo[2,3-b]pyridin-5-yl)phenyl)-4-(2-morpholinoacetyl)piperazin-2-one] | ≤ 10 nM | 300 to 3000 nM
COCC(=O)N1CCN(c2cccc(-c3cnc4[nH]cc(C#Cc5cccnc5)c4c3Cl)c2)C(=O)C1 [Example 29, 1-(3-(4-chloro-3-(pyridin-3-ylethynyl)-1H-pyrrolo[2,3-b]pyridin-5-yl)phenyl)-4-(2-methoxyacetyl)piperazin-2-one] | ≤ 10 nM | 300 to 3000 nM
CN(C)CC(=O)N1CCN(c2cccc(-c3cnc4[nH]cc(C#Cc5cccnc5)c4c3Cl)c2)C(=O)C1 [Example 30, 1-(3-(4-chloro-3-(pyridin-3-ylethynyl)-1H-pyrrolo[2,3-b]pyridin-5-yl)phenyl)-4-(dimethylglycyl)piperazin-2-one] | 10 to 100 nM | 300 to 3000 nM
CCc1c[nH]c2ncc(-c3cccc(N4CCN(C(=O)CC56CC7CC(CC(C7)C5)C6)CC4=O)c3)c(Cl)c12 [Example 33, 4-(2-((1s,3s)-adamantan-1-yl)acetyl)-1-(3-(4-chloro-3-ethyl-1H-pyrrolo[2,3-b]pyridin-5-yl)phenyl)piperazin-2-one] | 10 to 100 nM | 3000 to 10000 nM
CCc1c[nH]c2ncc(-c3cccc(N4CCN(C(=O)CCCNC(=O)CC56CC7CC(CC(C7)C5)C6)CC4=O)c3)c(Cl)c12 [Example 34, 2-((3r,5r,7r)-adamantan-1-yl)-N-(4-(4-(3-(4-chloro-3-ethyl-1H-pyrrolo[2,3-b]pyridin-5-yl)phenyl)-3-oxopiperazin-1-yl)-4-oxobutyl)acetamide] | 10 to 100 nM | 3000 to 10000 nM
COCC(=O)N1CCN(c2cccc(-c3cnc4[nH]cc(C#Cc5ccccn5)c4c3Cl)c2)C(=O)C1 [Example 35, 1-(3-(4-chloro-3-(pyridin-2-ylethynyl)-1H-pyrrolo[2,3-b]pyridin-5-yl)phenyl)-4-(2-methoxyacetyl)piperazin-2-one] | 10 to 100 nM | 3000 to 10000 nM
COCC(=O)N1CCN(c2cccc(-c3cnc4[nH]cc(C#Cc5ncn(C)n5)c4c3Cl)c2)C(=O)C1 [Example 36, 1-(3-(4-chloro-3-((1-methyl-1H-1,2,4-triazol-3-yl)ethynyl)-1H-pyrrolo[2,3-b]pyridin-5-yl)phenyl)-4-(2-methoxyacetyl)piperazin-2-one] | 10 to 100 nM | > 10000 nM
COCCN1CCN(c2cccc(-c3cnc4[nH]cc(CC(F)F)c4c3Cl)c2)C(=O)C1 [Example 37, 1-(3-(4-chloro-3-(2,2-difluoroethyl)-1H-pyrrolo[2,3-b]pyridin-5-yl)phenyl)-4-(2-methoxyethyl)piperazin-2-one] | 10 to 100 nM | 300 to 3000 nM
COCCN1CCN(c2cccc(-c3cnc4[nH]cc(C5CC5)c4c3Cl)c2)C(=O)C1 [Example 39, 1-(3-(4-chloro-3-cyclopropyl-1H-pyrrolo[2,3-b]pyridin-5-yl)phenyl)-4-(2-methoxyethyl)piperazin-2-one] | ≤ 10 nM | 300 to 3000 nM
CCc1c[nH]c2ncc(-c3cc(N4CCNCC4=O)ccc3CN(C)C)cc12 [Example 40, 1-(4-((dimethylamino)methyl)-3-(3-ethyl-1H-pyrrolo[2,3-b]pyridin-5-yl)phenyl)piperazin-2-one] | > 1000 nM | > 10000 nM
CCc1c[nH]c2ncc(-c3cc(N4CCNCC4=O)ccc3CNC)cc12 [Example 41, 1-(3-(3-ethyl-1H-pyrrolo[2,3-b]pyridin-5-yl)-4-((methylamino)methyl)phenyl)piperazin-2-one] | > 1000 nM | > 10000 nM

Next, values leading:

IC50 (HPK1) | IC50 [1] | SMILES
≤ 10 nM | 300 to 3000 nM | CCc1c[nH]c2ncc(-c3cccc(N4CCC[C@H](CO)C4=O)c3)c(Cl)c12 [Example 23, (R)-1-(3-(4-chloro-3-ethyl-1H-pyrrolo[2,3-b]pyridin-5-yl)phenyl)-3-(hydroxymethyl)piperidin-2-one]
≤ 10 nM | 300 to 3000 nM | CCc1c[nH]c2ncc(-c3cccc(N4CCC[C@@H](CO)C4=O)c3)c(Cl)c12 [Example 24, (S)-1-(3-(4-chloro-3-ethyl-1H-pyrrolo[2,3-b]pyridin-5-yl)phenyl)-3-(hydroxymethyl)piperidin-2-one]
≤ 10 nM | ≤ 300 nM | CCc1c[nH]c2ncc(-c3cccc(N4CCN(C(=O)OC)CC4=O)c3)c(Cl)c12 [Example 27, Methyl 4-(3-(4-chloro-3-ethyl-1H-pyrrolo[2,3-b]pyridin-5-yl)phenyl)-3-oxopiperazine-1-carboxylate]
≤ 10 nM | 300 to 3000 nM | CCc1c[nH]c2ncc(-c3cccc(N4CCN(CCOC)CC4=O)c3)c(Cl)c12 [Example 28, 1-(3-(4-chloro-3-ethyl-1H-pyrrolo[2,3-b]pyridin-5-yl)phenyl)-4-(2-methoxyethyl)piperazin-2-one]
≤ 10 nM | 300 to 3000 nM | CCc1c[nH]c2ncc(-c3cccc(N4CCN(C(=O)CN(C)C)CC4=O)c3)c(Cl)c12 [Example 31, 1-(3-(4-chloro-3-ethyl-1H-pyrrolo[2,3-b]pyridin-5-yl)phenyl)-4-(dimethylglycyl)piperazin-2-one]
≤ 10 nM | ≤ 300 nM | COCC(=O)N1CCN(c2cccc(-c3cnc4[nH]cc(C5CC5)c4c3Cl)c2)C(=O)C1 [Example 32, 1-(3-(4-chloro-3-cyclopropyl-1H-pyrrolo[2,3-b]pyridin-5-yl)phenyl)-4-(2-methoxyacetyl) piperazin-2-one]
≤ 10 nM | 300 to 3000 nM | COCC(=O)N1CCN(c2cccc(-c3cnc4[nH]cc(CC(F)F)c4c3Cl)c2)C(=O)C1 [Example 38, 1-(3-(4-chloro-3-(2,2-difluoroethyl)-1H-pyrrolo[2,3-b]pyridin-5-yl)phenyl)-4-(2-methoxyacetyl)piperazin-2-one]
10 to 100 nM | 3000 to 10000 nM | CCc1c[nH]c2ncc(-c3cccc(N4CCN(C(=O)[C@@H](N)C(C)C)CC4=O)c3)c(Cl)c12 [Example 42, 4-(L-valyl)-1-(3-(4-chloro-3-ethyl-1H-pyrrolo[2,3-b]pyridin-5-yl)phenyl)piperazin-2-one]
